According to patent US20030124585A1, “Type II gonadotropin-releasing hormone receptor and polynucleotides encoding therefor” (Medical Research Council, priority 2000, published 2003):
Like-named read-outs stand apart in the source and are kept apart here. Square brackets hold non-standard residues; d marks the D form. Peptide text beside a SMILES is read from it. pGlu = O=C1CC[C@@H](C(=O)O)N1

Columns and labels:
Type I receptor = settings: cited from earlier work
FSH and LH secretion = experiment: Stimulation of LH and FSH in sheep (Soay ram model); assay type: in vivo; settings: 10 μg dose, intravenous bolus, n=8
Experimental: Stimulation of LH and FSH in sheep. […] The same animals (n=8) were used on the two occasions. The GnRHs were administered at doses of 250 ng/ram and 10 μg/ram in a cross-over design with a week between treatments to permit full recovery. The peptides were dissolved in 1 ml of 0.9% saline and given as an intravenous bolus. Blood samples were collected every 10 min, from 20 min before, until 2 h after the treatments and assayed by specific radioimmunoassays (24). The FSH and LH responses to the GnRH agonists were calculated as delta responses (2 h mean hormone concentration post treatment minus 20 min mean pre-treatment hormone concentration). […] This was assessed for each animal and then for the group (mean±SEM, n=8), under both LD and SD.

[1] = molecular target: T1, marmoset Type II GnRH receptor (Callithrix jacchus, UniProt Q95MG6); experiment: Phospho-MAP kinase assay, p38α activation in transfected COS-7 cells; assay type: cell-based; settings: 100 nM, FIG. 8c
T1 construct: Full length marmoset Type II GnRH receptor was produced by PCR; expressed in transfected cells; host or cells: COS-7 cells, transient transfection (Superfect), plasmid pcDNA3.1+
T1 sequence (Q95MG6 1-380): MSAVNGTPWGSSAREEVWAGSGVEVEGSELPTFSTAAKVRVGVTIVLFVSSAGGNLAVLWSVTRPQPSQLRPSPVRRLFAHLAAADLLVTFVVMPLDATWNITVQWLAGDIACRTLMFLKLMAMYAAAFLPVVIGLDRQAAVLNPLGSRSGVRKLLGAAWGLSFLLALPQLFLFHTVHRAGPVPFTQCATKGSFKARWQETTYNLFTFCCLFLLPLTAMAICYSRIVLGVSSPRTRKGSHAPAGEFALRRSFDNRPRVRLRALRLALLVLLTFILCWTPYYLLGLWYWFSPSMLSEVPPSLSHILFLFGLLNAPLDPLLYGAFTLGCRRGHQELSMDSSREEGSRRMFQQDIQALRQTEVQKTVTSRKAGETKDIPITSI
Experimental: (§1) Cell culture and transfection. COS-7 cells were cultured as previously described (20, 21). Transient transfections of COS-7 cells with human Type I GnRH receptor or marmoset Type II GnRH receptor, along with myc-tagged ERK2, JNK and p38α constructs were performed using Superfect (Qiagen) according to the manufacturer's protocol. All assays described were performed 48 h post transfection.
(§2) Phospho-MAP kinase assay. […] After ligand stimulation, COS-7 cells were prepared for immunoprecipitation (23). Co-transfected myc-tagged MAP kinase constructs were immunoprecipitated from cell lysates by overnight incubation with myc-agarose slurry (Santa Cruz), washed, an equal volume of 2×Laemmli sample buffer added, resolved by SDS-PAGE and electrotransferred to PVDF membrane (NEN Life Sciences). Activated MAP kinase was detected using anti-phospho-ERK/JNK/p38a-kinase specific antisera (New England Biolabs), visualised by enzyme-linked chemifluorescence (Amersham-Pharmacia) and quantified using a phosphorimager. The degree of phosphorylated MAP kinase was normalised to the amount of unphosphorylated MAP kinase detected with specific antisera.

Marmoset Type II GnRH-R [2] = molecular target: T2, Marmoset Type II GnRH-R (Callithrix jacchus, UniProt Q95MG6); experiment: Total inositol phosphate production in transfected COS-7 cells; assay type: cell-based; settings: for EC50: s.e.m.
T2 construct: Full length marmoset Type II GnRH receptor was produced by PCR; expressed in transfected cells; host or cells: COS-7 cells, transient transfection (Superfect), plasmid pcDNA3.1+
T2 sequence (Q95MG6 1-380): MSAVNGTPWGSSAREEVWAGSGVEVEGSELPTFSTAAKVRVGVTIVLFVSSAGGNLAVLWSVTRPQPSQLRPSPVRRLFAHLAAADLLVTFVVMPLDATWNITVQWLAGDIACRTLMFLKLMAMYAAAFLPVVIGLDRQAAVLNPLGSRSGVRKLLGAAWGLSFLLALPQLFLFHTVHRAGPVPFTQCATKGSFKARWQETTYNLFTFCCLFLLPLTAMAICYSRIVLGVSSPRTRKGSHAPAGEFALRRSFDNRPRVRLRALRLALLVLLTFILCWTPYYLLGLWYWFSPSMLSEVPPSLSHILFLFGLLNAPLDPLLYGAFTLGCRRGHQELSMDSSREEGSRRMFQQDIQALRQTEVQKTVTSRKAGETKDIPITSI
Experimental: as §1
(§3) Receptor binding and inositol phosphate production.

[3] = molecular target: T3, human Type I GnRH receptor (Homo sapiens, UniProt P30968); experiment: as above; assay type: cell-based; settings: for EC50: Table 1, s.e.m., n=3-6, read-out: InsP production (EC50) Human Type I
T3 construct: expressed in transfected cells; host or cells: COS-7 cells, transient transfection (Superfect)
T3 sequence (P30968 1-328): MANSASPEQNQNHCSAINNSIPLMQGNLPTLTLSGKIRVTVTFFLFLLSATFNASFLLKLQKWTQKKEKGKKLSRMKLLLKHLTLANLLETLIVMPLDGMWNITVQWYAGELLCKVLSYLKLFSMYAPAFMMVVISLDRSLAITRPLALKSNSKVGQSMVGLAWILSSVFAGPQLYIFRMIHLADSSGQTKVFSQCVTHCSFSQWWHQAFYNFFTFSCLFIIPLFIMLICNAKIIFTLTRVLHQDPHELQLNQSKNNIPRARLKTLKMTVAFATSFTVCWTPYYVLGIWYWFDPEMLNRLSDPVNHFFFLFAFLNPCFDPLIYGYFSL
Experimental: as §1, §3

Marmoset Type II GnRH-R [4] = molecular target: T2, Marmoset Type II GnRH-R; experiment: Receptor binding, competition with 125I-[His5,D-Tyr6]GnRH, transfected COS-7 cells; settings: for IC50: s.e.m.
Experimental: as §1, §3

Marmoset Type II GnRH-R [5] = experiment: as above; settings: Type II versus Type I receptor; for Selectivity of the Type II receptor for the ligand (in words): binding, COS-7 cells
Experimental: as §1, §3

[6] = molecular target: T3, human Type I GnRH receptor; experiment: as above; settings: for IC50: Table 1, s.e.m., n=3-6, read-out: Ligand binding (IC50) Human Type I
Experimental: as §1, §3

[7] = molecular target: T3, human Type I GnRH receptor; experiment: Phospho-MAP kinase assay, ERK2 activation in transfected COS-7 cells; assay type: cell-based; settings: FIG. 8a
Experimental: as §1, §2

[8] = FIG. 5, COS-7 cells, n=2, read-out: EC50, total inositol phosphate production
[9] = Table 1, n=3-6, read-out: InsP production (EC50) Marmoset Type II
[10] = FIG. 4, COS-7 cells, n=2, read-out: IC50, heterologous competition binding of 125I-[His5,D-Tyr6]GnRH
[11] = Table 1, n=3-6, read-out: Ligand binding (IC50) Marmoset Type II

Row | Activation of p38α MAP kinase (in words) [1] | Inositol phosphate production activity relative to mammalian GnRH I at the Type II receptor (Marmoset Type II GnRH-R [2]; COS-7 cells) [fold] | EC50 (Marmoset Type II GnRH-R [2]; [8]) [nM] | EC50 (Marmoset Type II GnRH-R [2]; [9]) [nM] | Inositol phosphate production activity as percent of mammalian GnRH I at the Type I receptor ([3]; COS-7 cells) [%] | Receptor binding activity relative to mammalian GnRH I at the Type II receptor (Marmoset Type II GnRH-R [4]; COS-7 cells) [fold] | IC50 (Marmoset Type II GnRH-R [4]; [10]) [nM] | IC50 (Marmoset Type II GnRH-R [4]; [11]) [nM] | Receptor binding activity as percent of mammalian GnRH I at the Type I receptor ([6]; COS-7 cells) [%] | Activation of ERK2 (in words) [7] | EC50 [3] [nM] | IC50 [6] [nM] | Structure (SMILES) | Affinity and potency as percent of mammalian GnRH I at the Type I receptor (Type I receptor) [%] | Mean ratio of FSH to LH secretion relative to that induced by mammalian GnRH I (FSH and LH secretion; sexually active rams) [times] | Mean ratio of FSH to LH secretion relative to that induced by mammalian GnRH I (FSH and LH secretion; sexually quiescent rams) [times] | Affinity for the Type II receptor relative to the Type I receptor (Marmoset Type II GnRH-R [5]) [fold] | Selectivity of the Type II receptor for the ligand (in words) (Marmoset Type II GnRH-R [5])
1 | selective and time-dependent activation | 90 | 0.46 ± 0.12 | 0.45 ± 0.05 | 9 | 40 | 1.3 ± 0.2 | 1.07 ± 0.04 | 10 | – | – | – | NC(=O)CNC(=O)[C@@H]1CCCN1C(=O)[C@H](Cc1ccc(O)cc1)NC(=O)[C@H](Cc1c[nH]c2ccccc12)NC(=O)CNC(=O)[C@H](Cc1c[nH]cn1)NC(=O)[C@H](CO)NC(=O)[C@H](Cc1c[nH]c2ccccc12)NC(=O)[C@H](Cc1c[nH]cn1)NC(=O)[C@@H]1CCC(=O)N1 [GnRH II, [His^5,Trp^7,Tyr^8]GnRH I] ([pGlu]HWSHGWYPG-NH2; C-terminus assumed) | ≤ 20 | 2.14±0.29 | 2.02±0.34 | 24 | high selectivity
2 | – | – | 33.2 ± 6.3 | 40.5 ± 4.43 | – | – | 51.7 ± 1.9 | 42.6 ± 3.19 | – | considerably more potent than GnRH II | – | – | CC(C)C[C@H](NC(=O)CNC(=O)[C@H](Cc1ccc(O)cc1)NC(=O)[C@H](CO)NC(=O)[C@H](Cc1c[nH]c2ccccc12)NC(=O)[C@H](Cc1c[nH]cn1)NC(=O)[C@@H]1CCC(=O)N1)C(=O)N[C@@H](CCCNC(=N)N)C(=O)N1CCC[C@H]1C(=O)NCC(N)=O [GnRH I] | – | – | – | – | –
3 | – | – | 1.1 ± 0.23 | 2.39 ± 0.64 | – | – | – | 3.34 ± 0.06 | – | – | 3.8 ± 0.71 | 11.9 ± 0.35 | N=C(N)NCCC[C@@H](NC(=O)[C@H](Cc1c[nH]cn1)NC(=O)[C@H](CO)NC(=O)[C@H](Cc1c[nH]c2ccccc12)NC(=O)[C@H](Cc1c[nH]cn1)NC(=O)[C@@H]1CCC(=O)N1)C(=O)N[C@@H](Cc1c[nH]c2ccccc12)C(=O)N[C@@H](Cc1ccc(O)cc1)C(=O)N1CCC[C@H]1C(=O)NCC(N)=O [[D-Arg^6] GnRH II, [D-Arg^6]GnRH II] ([pGlu]HWSH[dR]WYPG-NH2; C-terminus assumed) | – | – | – | – | more selective
4 | – | – | 8.7 ± 0.5 | 5.99 ± 0.91 | – | – | 9.8 ± 1.4 | 9.48 ± 2.17 | – | – | 9.62 ± 3.5 | 244 ± 23.6 | CC(C)C[C@H](NC(=O)[C@H](Cc1c[nH]c2ccccc12)NC(=O)CNC(=O)[C@H](Cc1ccc(O)cc1)NC(=O)[C@H](CO)NC(=O)[C@H](Cc1c[nH]c2ccccc12)NC(=O)[C@H](Cc1c[nH]cn1)NC(=O)[C@@H]1CCC(=O)N1)C(=O)N1CCC[C@H]1C(=O)NCC(N)=O [sGnRH, [Trp^7,Leu^8]GnRH I] ([pGlu]HWSYGWLPG-NH2; C-terminus assumed) | – | – | – | – | more selective
